Blank lines part the entries; values can stand above or below the molecule they belong to.
Tests used:
[1] = molecular target: T1, Myotonin-protein kinase (Homo sapiens) (UniProt Q09013); test: Selectivity interaction (KinomeScan (DiscoverX)) EUB0001079a DMPK; settings: at 1 µM
T1 sequence (whole entry): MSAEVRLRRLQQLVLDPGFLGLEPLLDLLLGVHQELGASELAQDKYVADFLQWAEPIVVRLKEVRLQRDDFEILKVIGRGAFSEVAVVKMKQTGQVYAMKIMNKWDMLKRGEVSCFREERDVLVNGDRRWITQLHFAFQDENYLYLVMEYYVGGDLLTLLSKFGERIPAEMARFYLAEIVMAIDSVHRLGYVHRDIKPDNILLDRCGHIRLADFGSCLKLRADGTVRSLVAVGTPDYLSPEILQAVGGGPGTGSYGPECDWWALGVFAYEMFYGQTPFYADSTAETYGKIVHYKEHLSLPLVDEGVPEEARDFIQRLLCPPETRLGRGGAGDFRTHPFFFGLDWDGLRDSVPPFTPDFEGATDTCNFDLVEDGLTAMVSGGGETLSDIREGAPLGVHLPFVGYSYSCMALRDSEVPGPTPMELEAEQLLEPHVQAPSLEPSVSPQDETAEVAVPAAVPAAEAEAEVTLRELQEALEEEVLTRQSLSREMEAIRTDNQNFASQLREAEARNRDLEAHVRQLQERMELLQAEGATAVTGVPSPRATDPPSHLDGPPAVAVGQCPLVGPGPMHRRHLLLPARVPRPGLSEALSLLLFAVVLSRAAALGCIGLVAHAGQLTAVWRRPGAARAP

[2] = molecular target: Serine/threonine-protein kinase Nek7 (Homo sapiens) (UniProt Q8TDX7); test: Selectivity interaction (KinomeScan (DiscoverX)) EUB0000666a NEK7; settings: at 10 µM
[3] = molecular target: Histone-lysine N-methyltransferase SETD2 (Homo sapiens) (UniProt Q9BYW2); test: Selectivity interaction (Transferase panel (protein, RNA, and DNA methyltransferases. and EP300 (acetyltransferase))) EUB0000270b SETD2
Insulin receptor = Insulin receptor (Homo sapiens, UniProt P06213)
[4] = molecular target: Serine/threonine-protein kinase MRCK beta (Homo sapiens) (UniProt Q9Y5S2); test: Selectivity interaction (KinomeScan (DiscoverX)) EUB0001619a CDC42BPB; settings: at 1 µM
[5] = molecular target: Serine/threonine-protein kinase 24 (Homo sapiens) (UniProt Q9Y6E0); test: Selectivity interaction (ActivX KiNativ screen (ex vivo kinase selectivity in human PBMCs)) EUB0001619a STK24; assay type: cell-based; settings: PBMC, at 1 µM
[6] = molecular target: T2, Mixed lineage kinase domain-like protein (Homo sapiens) (UniProt Q8NB16); test: Selectivity interaction (ActivX KiNativ screen (ex vivo kinase selectivity in human PBMCs)) EUB0001619a MLKL; assay type: cell-based; settings: PBMC, at 1 µM
T2 sequence (whole entry): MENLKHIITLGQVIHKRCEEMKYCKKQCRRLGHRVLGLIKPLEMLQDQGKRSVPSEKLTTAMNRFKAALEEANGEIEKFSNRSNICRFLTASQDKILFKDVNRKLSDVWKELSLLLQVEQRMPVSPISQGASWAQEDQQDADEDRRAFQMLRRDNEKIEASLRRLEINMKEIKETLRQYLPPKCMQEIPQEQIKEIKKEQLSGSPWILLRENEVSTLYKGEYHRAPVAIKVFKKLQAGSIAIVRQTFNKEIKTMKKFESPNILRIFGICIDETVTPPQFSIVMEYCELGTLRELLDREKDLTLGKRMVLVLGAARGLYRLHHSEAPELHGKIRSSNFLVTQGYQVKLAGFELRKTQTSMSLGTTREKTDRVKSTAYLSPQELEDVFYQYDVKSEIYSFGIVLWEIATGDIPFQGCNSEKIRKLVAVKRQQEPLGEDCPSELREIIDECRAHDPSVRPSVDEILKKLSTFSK

[7] = molecular target: T3, Inhibitor of nuclear factor kappa-B kinase subunit beta (Homo sapiens) (UniProt O14920); test: Selectivity interaction (ActivX KiNativ screen (kinase selectivity in THP-1 cell lysates)) EUB0000639a IKBKB; assay type: subcellular; settings: lysate, at 0.01 µM
T3 sequence (whole entry): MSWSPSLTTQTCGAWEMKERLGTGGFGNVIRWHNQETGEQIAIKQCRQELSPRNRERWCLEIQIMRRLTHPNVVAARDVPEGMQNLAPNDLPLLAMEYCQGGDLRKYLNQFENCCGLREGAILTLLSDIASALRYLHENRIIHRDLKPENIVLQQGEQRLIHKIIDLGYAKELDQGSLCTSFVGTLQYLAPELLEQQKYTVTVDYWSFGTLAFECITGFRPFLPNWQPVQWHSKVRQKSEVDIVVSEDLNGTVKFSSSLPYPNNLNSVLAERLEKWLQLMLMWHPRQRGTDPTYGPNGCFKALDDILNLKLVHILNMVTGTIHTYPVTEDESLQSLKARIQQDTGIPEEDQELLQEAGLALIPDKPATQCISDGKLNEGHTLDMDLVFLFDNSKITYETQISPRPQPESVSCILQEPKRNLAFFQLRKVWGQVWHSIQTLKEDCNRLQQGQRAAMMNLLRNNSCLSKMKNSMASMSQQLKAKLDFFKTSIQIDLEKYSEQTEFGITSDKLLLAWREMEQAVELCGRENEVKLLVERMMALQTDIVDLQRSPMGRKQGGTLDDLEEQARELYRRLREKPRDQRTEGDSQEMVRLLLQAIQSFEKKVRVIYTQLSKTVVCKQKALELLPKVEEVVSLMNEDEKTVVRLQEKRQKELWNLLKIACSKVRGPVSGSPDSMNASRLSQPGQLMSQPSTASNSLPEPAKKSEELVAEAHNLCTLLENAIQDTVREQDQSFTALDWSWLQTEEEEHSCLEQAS

[8] = molecular target: Serine/threonine-protein kinase 32C (Homo sapiens) (UniProt Q86UX6); settings: at 10 µM

Sequence of Histone-lysine N-methyltransferase SETD2 (Homo sapiens) (Q9BYW2 whole entry): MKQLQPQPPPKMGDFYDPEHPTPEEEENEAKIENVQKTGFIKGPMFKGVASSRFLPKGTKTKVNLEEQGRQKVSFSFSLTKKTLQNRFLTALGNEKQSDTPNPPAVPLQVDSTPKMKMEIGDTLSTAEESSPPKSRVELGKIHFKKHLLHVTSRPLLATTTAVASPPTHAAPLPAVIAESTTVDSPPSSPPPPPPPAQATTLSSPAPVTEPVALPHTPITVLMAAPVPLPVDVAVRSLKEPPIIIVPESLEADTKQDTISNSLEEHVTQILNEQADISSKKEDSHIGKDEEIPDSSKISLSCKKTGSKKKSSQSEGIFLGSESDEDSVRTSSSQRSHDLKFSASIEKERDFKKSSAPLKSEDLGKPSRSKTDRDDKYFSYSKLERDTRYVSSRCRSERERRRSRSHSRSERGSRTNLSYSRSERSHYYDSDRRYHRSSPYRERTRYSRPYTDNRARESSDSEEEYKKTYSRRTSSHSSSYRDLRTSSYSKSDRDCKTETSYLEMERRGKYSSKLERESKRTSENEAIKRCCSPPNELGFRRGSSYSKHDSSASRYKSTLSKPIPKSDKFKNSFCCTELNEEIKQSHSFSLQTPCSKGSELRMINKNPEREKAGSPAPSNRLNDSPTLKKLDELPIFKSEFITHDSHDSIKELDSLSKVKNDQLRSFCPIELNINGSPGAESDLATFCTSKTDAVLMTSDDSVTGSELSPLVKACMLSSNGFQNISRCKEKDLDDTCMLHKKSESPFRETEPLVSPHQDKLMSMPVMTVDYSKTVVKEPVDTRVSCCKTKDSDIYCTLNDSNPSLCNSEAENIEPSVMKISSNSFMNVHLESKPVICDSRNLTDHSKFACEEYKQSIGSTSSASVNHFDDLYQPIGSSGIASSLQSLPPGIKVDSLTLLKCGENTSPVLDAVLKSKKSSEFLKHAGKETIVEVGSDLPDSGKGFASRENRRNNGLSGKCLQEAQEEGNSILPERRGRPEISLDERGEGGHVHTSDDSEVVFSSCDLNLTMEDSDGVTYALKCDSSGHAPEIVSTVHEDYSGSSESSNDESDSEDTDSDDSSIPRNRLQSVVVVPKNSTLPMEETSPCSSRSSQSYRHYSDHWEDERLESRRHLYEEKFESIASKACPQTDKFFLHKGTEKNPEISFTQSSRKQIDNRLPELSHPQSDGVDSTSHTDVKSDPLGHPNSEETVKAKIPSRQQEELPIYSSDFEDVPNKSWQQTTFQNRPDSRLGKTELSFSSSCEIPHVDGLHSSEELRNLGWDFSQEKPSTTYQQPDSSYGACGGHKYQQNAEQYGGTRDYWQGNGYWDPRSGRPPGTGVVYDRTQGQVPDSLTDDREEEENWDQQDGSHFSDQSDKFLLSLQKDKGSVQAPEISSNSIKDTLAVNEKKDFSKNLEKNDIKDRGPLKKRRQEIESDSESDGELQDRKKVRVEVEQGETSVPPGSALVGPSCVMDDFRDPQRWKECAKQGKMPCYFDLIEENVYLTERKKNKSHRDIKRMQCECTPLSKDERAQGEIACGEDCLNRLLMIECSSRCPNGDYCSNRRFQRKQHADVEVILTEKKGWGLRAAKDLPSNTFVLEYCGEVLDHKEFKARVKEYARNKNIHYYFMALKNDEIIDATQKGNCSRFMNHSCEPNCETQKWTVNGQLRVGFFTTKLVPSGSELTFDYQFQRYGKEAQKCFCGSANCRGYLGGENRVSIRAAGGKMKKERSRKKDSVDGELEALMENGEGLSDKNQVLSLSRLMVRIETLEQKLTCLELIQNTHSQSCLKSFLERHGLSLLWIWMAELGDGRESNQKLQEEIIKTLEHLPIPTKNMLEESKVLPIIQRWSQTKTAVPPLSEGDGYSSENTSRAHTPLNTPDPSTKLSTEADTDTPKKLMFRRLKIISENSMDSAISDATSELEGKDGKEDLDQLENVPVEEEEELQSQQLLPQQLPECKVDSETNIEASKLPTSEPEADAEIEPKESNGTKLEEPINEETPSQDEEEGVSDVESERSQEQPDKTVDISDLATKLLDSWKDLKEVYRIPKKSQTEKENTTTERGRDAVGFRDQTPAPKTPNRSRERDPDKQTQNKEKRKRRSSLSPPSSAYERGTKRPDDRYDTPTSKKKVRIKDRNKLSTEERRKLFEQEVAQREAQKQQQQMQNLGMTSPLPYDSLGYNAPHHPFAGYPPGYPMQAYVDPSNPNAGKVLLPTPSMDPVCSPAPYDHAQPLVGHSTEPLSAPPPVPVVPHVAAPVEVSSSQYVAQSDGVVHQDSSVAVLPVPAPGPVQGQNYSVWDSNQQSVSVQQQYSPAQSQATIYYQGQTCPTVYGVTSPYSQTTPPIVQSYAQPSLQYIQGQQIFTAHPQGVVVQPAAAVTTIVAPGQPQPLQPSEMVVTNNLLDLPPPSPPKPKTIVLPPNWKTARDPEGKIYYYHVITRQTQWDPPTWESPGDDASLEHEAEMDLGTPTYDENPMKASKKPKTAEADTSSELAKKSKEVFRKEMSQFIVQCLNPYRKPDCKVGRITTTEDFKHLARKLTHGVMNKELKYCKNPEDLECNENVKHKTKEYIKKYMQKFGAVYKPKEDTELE
Sequence of Insulin receptor (P06213 28-758 limits assumed): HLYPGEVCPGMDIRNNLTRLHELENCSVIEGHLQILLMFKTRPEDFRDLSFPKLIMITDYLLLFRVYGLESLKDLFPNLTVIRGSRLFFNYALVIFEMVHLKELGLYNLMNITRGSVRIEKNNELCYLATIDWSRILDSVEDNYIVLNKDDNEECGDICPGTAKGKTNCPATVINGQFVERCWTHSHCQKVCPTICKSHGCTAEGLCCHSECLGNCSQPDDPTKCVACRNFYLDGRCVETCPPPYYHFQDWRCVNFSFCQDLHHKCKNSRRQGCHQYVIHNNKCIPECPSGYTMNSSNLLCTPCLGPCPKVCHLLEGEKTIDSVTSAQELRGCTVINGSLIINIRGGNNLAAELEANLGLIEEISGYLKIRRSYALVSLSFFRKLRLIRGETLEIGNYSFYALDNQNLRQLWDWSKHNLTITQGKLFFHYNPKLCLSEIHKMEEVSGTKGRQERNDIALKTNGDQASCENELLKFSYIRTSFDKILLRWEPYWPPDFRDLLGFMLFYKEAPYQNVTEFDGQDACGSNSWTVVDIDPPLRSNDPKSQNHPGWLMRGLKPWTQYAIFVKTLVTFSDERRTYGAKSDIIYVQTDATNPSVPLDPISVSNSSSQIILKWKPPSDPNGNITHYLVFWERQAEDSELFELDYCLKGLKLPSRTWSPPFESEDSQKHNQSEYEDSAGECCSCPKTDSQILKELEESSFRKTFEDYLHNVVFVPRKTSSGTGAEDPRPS
Sequence of Insulin receptor (P06213 763-1382 limits assumed): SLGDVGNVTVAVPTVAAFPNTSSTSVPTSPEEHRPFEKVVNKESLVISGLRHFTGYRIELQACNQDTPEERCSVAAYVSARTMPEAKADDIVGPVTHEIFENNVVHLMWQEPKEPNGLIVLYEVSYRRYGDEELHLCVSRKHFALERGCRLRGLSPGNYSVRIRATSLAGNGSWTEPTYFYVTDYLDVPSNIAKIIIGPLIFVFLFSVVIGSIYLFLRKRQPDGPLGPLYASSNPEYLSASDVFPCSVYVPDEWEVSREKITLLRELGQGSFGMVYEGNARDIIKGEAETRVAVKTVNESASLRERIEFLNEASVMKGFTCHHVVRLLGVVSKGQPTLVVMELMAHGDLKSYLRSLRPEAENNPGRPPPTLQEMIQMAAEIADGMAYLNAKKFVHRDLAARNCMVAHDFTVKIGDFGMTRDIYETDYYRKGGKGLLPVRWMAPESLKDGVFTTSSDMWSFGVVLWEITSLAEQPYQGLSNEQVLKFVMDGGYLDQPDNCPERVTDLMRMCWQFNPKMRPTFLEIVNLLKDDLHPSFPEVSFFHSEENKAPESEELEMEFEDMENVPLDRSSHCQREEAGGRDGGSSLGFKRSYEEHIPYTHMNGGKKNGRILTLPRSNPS
Sequence of Serine/threonine-protein kinase Nek7 (Homo sapiens) (Q8TDX7 whole entry, looked up): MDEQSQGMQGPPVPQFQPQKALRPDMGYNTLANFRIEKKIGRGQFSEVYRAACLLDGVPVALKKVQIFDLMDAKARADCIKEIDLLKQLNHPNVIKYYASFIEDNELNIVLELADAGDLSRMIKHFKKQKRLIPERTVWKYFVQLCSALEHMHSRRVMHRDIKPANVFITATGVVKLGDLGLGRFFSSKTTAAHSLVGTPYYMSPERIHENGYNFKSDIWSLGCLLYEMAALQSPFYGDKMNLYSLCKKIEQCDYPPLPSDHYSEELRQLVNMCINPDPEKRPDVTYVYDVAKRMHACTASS
Sequence of Serine/threonine-protein kinase 24 (Homo sapiens) (Q9Y6E0 whole entry, looked up, the tested form may be a part): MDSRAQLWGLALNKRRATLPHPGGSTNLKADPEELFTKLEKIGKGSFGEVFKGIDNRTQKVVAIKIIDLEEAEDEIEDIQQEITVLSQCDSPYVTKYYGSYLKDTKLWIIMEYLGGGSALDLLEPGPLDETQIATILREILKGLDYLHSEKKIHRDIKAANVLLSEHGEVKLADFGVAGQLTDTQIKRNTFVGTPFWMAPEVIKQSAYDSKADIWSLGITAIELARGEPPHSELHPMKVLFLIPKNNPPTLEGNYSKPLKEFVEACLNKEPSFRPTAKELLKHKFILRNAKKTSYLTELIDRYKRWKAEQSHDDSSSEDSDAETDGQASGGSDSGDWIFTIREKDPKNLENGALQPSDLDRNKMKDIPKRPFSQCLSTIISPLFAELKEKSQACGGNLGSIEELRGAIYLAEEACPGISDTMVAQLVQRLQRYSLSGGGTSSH

Compound: Nc1cnc(N2CCc3cc(S(=O)(=O)Nc4c(F)cc(Cl)cc4F)cc(N4CCCC4=O)c32)nc1 [TP-020n]
% of control [1]: 100%

Compound: O=C(NOC[C@H](O)CO)c1ccc(F)c(F)c1Nc1ccc(I)cc1F
% of control [2]: 95%

Compound: Cc1cc(CN)cc(C)c1-c1ncn(C)c1-c1cncn1C
% activity ([3]; at 1 µM): > 90%
% activity ([3]; at 10 µM): > 80%

Compound: N#Cc1cccc(-c2c[nH]c3ncnc(N4CCOCC4)c23)c1
% of control [4]: 83%
% of inhibition [5]: 46%
% of inhibition [6]: 15%

Compound: CC[C@@H]1[C@H](F)C(=O)N[C@@H]1COc1nccc2cc(C(N)=O)c(OC)cc12 [ZIMLOVISERTIB]
% of inhibition [7]: -4.2%

More lines, now with the values ahead:

IC50 (Insulin receptor): > 10 µM
Compound: CCc1cccc(CC)c1NC(=O)c1nn(C)c2c1CCc1cnc(Nc3ccc(C(=O)NC4CCN(C)CC4)cc3OC(F)(F)F)nc1-2

% of control [8]: 100%
Compound: CCN(CC)CCCCNc1ncc2cc(-c3cc(OC)cc(OC)c3)c(NC(=O)NC(C)(C)C)nc2n1

Source: ChEMBL document CHEMBL5465560, “Selectivity Literature for EUbOPEN Chemogenomic Library” (2024)
